Experimental data reported in patent US20060018827A1, “Positron therapy of inflammation, infection and disease” (priority 2004, published 2006).

Legend:
xenografted Notch tumor = assay: Treatment of Notch tumor-bearing mice with ^18F-FDG; format: in vivo, mouse; settings: Notch tumor-bearing nude mice, 2.5 mCi i.p.
Description: Notch cell line. Mouse mammary gland cell line 5505 was derived from mammary tumors arising in transgenic mice which express an activated form of Notch 4 from the mouse mammary tumor virus long terminal repeat (MMTV-LTR) promoter/enhancer (Fitzgerald et al. 2000). This cell line is further referred to herein as Notch cells. The Notch cells were cultured in DMEM supplemented with 10% FCS, 10% NCTC-109, 1% non-essential amino acids, […] D-glucose and 1% penicillin-streptomycin.
Animals. All procedures involving mice were conducted in accordance with the National Institutes of Health regulations concerning the use and care of experimental animals. The study of mice was approved by the Albert Einstein College of Medicine (AECOM) Animal Use Committee. Transgenic mice expressing the polyoma middle T antigen (PyMT) in the mammary epithelium under the control of mouse mammary tumor virus (MMTV) long terminal repeat were provided by Dr. W. J. Muller (McMaster University, Ontario, Canada) and then bred at AECOM. At the age of 10 weeks these mice have multiple mammary tumors 0.15-0.17 cm in diameter. In mice older than 18 weeks the tumors are more than 1 cm in diameter. MMTV-NeuT mice (Muller et al. 1988), which carry erbB-2 (Neu), one of the better known human breast cancer oncogenes, were purchased from Jackson Laboratories. MMTV-NeuT mice were obtained as retired breeders and some of them developed mammary tumors at the age of 5 months, whereas others remained-tumor free until 6-7 months of age. C3H/B6 female mice lacking the PyMT transgene were used as healthy controls in therapy experiments. […]
Treatment of Notch tumor-bearing mice with ^18F-FDG. […] Animals were monitored for their vital signs and survival for 1 month. Their tumors were measured every 3 days with calipers in three perpendicular planes and the product of the three measurements was multiplied by 0.5 and expressed in cm^3. The growth rate for tumors in cm^3/day was calculated using the formula: […]/number of days survived. […]

metastatic breast cancer = assay: ^18F-FDG-PET in breast cancer patients with metastatic disease; format: in vivo, human
Description: ^18F-FDG-PET in breast cancer patients with metastatic disease. Approval was obtained from the Albert Einstein College of Medicine Cancer Center Protocol Review Committee and the Montefiore Medical Center Institutional Review Board. Retrospectively, five consecutive patients with breast cancer and metastatic disease shown on ^18F-FDG-PET scanning were evaluated. After more than 4 hours of fasting, the patients were administered 3.5 mCi of ^18F-FDG, and rested during an uptake period of 45 minutes. The patients then underwent a whole-body scan on the CPET scanner. The scanning protocol consisted of 6 minutes of emission and two rotations of a ^137Cs source for transmission per bed position, and approximately six bed positions. Images were corrected for attenuation and reconstructed with the iterative method. To reduce volume averaging, a small round region of interest 12 pixels in size was drawn in the center of the tumor and in the center of normal liver. The diameter of the region was 14 mm. Standardized uptake values (SUVs) were calculated for all regions of interest by the formula SUV=(activity in tissue [mCi/g]) divided by (injected activity [mCi]/body weight [g]). The tumor to liver ratios (TLRS) were calculated by the formula TLR=SUV of tumor divided by SUV of liver.

[1] = Patient 1, metastasis to sub-carinal lymph node, 3.5 mCi
[2] = Patient 2, metastasis to the left axilla, 3.5 mCi
[3] = Patient 4, metastasis to the right axilla, 3.5 mCi

O=C[C@H]([18F])[C@@H](O)[C@H](O)[C@H](O)CO [^18F-FDG, ^18F-2-deoxy-2-fluoro-D-glucose]
mean (95% CI) time to death (xenografted Notch tumor): 18 (13-23) days | survival period (xenografted Notch tumor; longest survival): up to 30 days | median tumor growth rate (xenografted Notch tumor; therapy group): 0.020 cm^3/day | SUV Metastasis (metastatic breast cancer; [1]): 5.3 | TLR (metastatic breast cancer; [1]): 1.89 | SUV Normal liver (metastatic breast cancer; Patient 1, 3.5 mCi): 2.8 | SUV Metastasis (metastatic breast cancer; [2]): 7.4 | TLR (metastatic breast cancer; [2]): 3.36 | SUV Normal liver (metastatic breast cancer; Patient 2, 3.5 mCi): 2.3 | SUV Metastasis (metastatic breast cancer; Patient 3, liver metastasis (10 cm×6 cm×4.5 cm), 3.5 mCi): 5.8 | TLR (metastatic breast cancer; Patient 3, liver metastasis, 3.5 mCi): 2.23 | lowest SUV (metastatic breast cancer; Patient 3, tumor with a diameter of 2 cm): 3.8 | SUV Normal liver (metastatic breast cancer; Patient 3, 3.5 mCi): 2.6 | SUV Metastasis (metastatic breast cancer; [3]): 5.3 | TLR (metastatic breast cancer; [3]): 2.52 | SUV Normal liver (metastatic breast cancer; Patient 4, 3.5 mCi): 2.1 | SUV Metastasis (metastatic breast cancer; Patient 5, right lung metastasis (most intense, diameter 5 cm), 3.5 mCi): 9.9 | TLR (metastatic breast cancer; Patient 5, right lung metastasis, 3.5 mCi): 3.67 | least intense SUV (metastatic breast cancer; Patient 5, tumor with a diameter of 1.5 cm): 2.9 | SUV Normal liver (metastatic breast cancer; Patient 5, 3.5 mCi): 2.7 | average TLR (metastatic breast cancer; five patients with metastatic breast cancer, 3.5 mCi): 2.7±0.8
